# “Also recorded” adds a separate entry of the source.
# What was measured:
# [1] = tested on: PMNs, monocytes and lymphocytes; assay: Human cell specificity by live confocal imaging; type: cell-based; details: PMNs vs monocytes vs lymphocytes
# Method: Human peripheral blood leukocytes from healthy volunteers were prepared as previously described^25. Briefly, citrated blood was centrifuged at room temperature for 20 min at 350 g, and platelet-rich plasma was removed. Autologous serum was prepared by recalcification of platelet-rich plasma by addition of CaCl2 to a final concentration of 2 mM. Leukocytes were separated from erythrocytes by dextran sedimentation using 0.6% dextran T500 (Pharmacia, Milton Keynes, UK), and the leukocyte-rich upper layer was then fractionated using isotonic Percoll (Pharmacia). Neutrophils and mononuclear leukocytes (PBMC) were harvested from the 68%181% and 55/68% interfaces, respectively. In some experiments, neutrophils were labelled with DiD (Invitrogen, molecular probes) (2.5 μM) in D-PBS (w/o Ca/Mg) for 20 min at room temperature. […]
# In multiple labelling experiments using IQR probes in combination with syto-85 (Invitrogen, 2.5 μM, 30 minutes, 37° C.), images were acquired sequentially. Fluorescein was excited with a dedicated 488 nm line and emitted light reflected from a NFT545 filter and passed through an LP505 filter whereas syto-85 were excited with a dedicated 543 nm line, and emitted light detected with meta detector ([…]). […]
# [2] = tested on: freshly isolated human neutrophils (PMNs); assay: Live time-lapse confocal imaging of probe uptake in activated human neutrophils; type: cell-based
# Method: Human peripheral blood leukocytes from healthy volunteers were prepared as previously described^25. Briefly, citrated blood was centrifuged at room temperature for 20 min at 350 g, and platelet-rich plasma was removed. Autologous serum was prepared by recalcification of platelet-rich plasma by addition of CaCl2 to a final concentration of 2 mM. Leukocytes were separated from erythrocytes by dextran sedimentation using 0.6% dextran T500 (Pharmacia, Milton Keynes, UK), and the leukocyte-rich upper layer was then fractionated using isotonic Percoll (Pharmacia). Neutrophils and mononuclear leukocytes (PBMC) were harvested from the 68%181% and 55/68% interfaces, respectively. In some experiments, neutrophils were labelled with DiD (Invitrogen, molecular probes) (2.5 μM) in D-PBS (w/o Ca/Mg) for 20 min at room temperature.
# A laser-scanning confocal imaging system (LSM510; Carl Zeiss, Jena, Germany), incorporating an upright Axioskop FS2 microscope (63× objective) was used for image acquisition and processing. Exposure to 488 nm light was limited to 1-6% of the maximum laser power in order to minimize photobleaching and toxicity. In all cases, images were obtained without Kalman averaging and typically with a pixel dwell time of 3.2 μs with a pinhole diameter corresponding to 1 Airy unit. In multiple-labelling experiments pinhole diameters were adjusted to give optical Z-sections of equivalent depths, corresponding to 1 Airy unit for the longest excitation wavelength. All live time-lapse imaging of was performed in IMDM. Coverslips were transferred to a thermostatted environmental stage (POC Mini) maintained at 30° C.^26. Drugs were added by bath addition. In experiments where fluorescein was examined alone, the fluorophore was excited with a dedicated 488 nm line, and emitted light reflected from a NFT545 filter and passed through an LP505 filter.
# In multiple labelling experiments involving membrane (DiD, Invitrogen), or dextran-647, and IQR probes, images were obtained simultaneously. DiD or dextran-647 was excited with a dedicated 633 nm line, and emitted light detected with meta detector (650-705 nm), whereas Fluorescein was excited with a dedicated 488 nm line, and emitted light reflected from a NFT545 filter and passed through an LP505 filter.
# Neutrophils and mononuclear cells (6×10^5 cells total), or PBMC-derived macrophages, were seeded onto glass coverslips pre-coated with 10 μg/ml fibronectin (Sigma). Cells were allowed to adhere and 10 μM (final concentration) IQR1.2 added to wells prior to transfer to POC mini and placement in environmental chamber. Live imaging commenced at 30 s intervals. Baseline images were acquired for 10-15 min prior to addition of A21387 (10 μM, Sigma) and live time-lapse confocal images acquired for further 20 min. Where sivelestat or dynasore was included, cells were pretreated for 10 minutes prior to imaging.
# [3] = tested on: freshly isolated human neutrophils; assay: In vitro Cellvizio 488 nm fibreoptic confocal imaging; type: cell-based
# Method: Human neutrophils were isolated as described above and suspended in PBS with or without activating agents. A fibreoptic confocal system (488 Cellvizio) was used to acquire images in eppendorfs of cells both in the presence of free FAM and IQRs and after washing cells of free FAM and IQR in media. Imaging was performed for 60 s and representative still frames converted to bmp format.
# human neutrophil lysate = assay: Fluorescent microplate reader dequenching with neutrophil lysate; type: biochemical; details: 50 uM
# Method: For experiments using neutrophil lysate, IQR4 (0.5 uM) is incubated with freeze-thawed neutrophil lysate (10×10^8 cells/ml) in IMDM with or without sivelestat (50 uM). The timecourse of fluorescence dequenching was followed for 30 min with a fluorescence microplate reader (excitation 480/20, emission 528/25).
# [4] = biological target: T1, recombinant human neutrophil elastase (HNE) (Homo sapiens, UniProt P08246); assay: Fluorescent microplate reader dequenching with HNE; type: biochemical; details: 50 uM
# T1 sequence (P08246 30-267): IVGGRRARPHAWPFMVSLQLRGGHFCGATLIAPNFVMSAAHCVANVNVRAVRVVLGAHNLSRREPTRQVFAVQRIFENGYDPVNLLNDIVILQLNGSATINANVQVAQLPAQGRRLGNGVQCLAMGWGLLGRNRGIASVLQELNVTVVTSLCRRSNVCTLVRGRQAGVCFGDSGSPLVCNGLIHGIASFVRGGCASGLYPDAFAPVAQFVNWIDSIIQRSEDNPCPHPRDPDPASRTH
# Method: IQR4 (0.5 uM) was incubated with of human neutrophil elastase (HNE; 11.3 ug/ml) in reaction buffer (50 mm Hepes buffer, pH 7.4, 0.75 m NaCl, 0.05% Igepal CA-630 (v/v)) with or without of sivelestat (50 uM). The timecourse of fluorescence dequenching was followed for 30 min with a fluorescence microplate reader (excitation 480/20, emission 528/25).
compound,measurement,setting,value
5(6)-carboxyfluorescein [FAM],cell specificity of probe uptake/activation,[1],Only activated PMN's internalise FAM
same,probe uptake after pretreatment with dynamin inhibitor Dynasore,"[2]; activated neutrophils, Dynasore pretreatment",prevented
same,appearance of punctate cell-associated fluorescence,"[2]; activation with 10 μM A23187 (calcium ionophore), confocal imaging",rapid appearance of punctate cell-associated fluorescence
same,resolution of activated cells before wash,"[3]; 15 min exposure, probe in medium",not possible to resolve activated cells
same,visibility of activated cells after washing,"[3]; cells spun down, probe removed",activated cells are visible
O=C(N/N=C/c1ccc(O)c(O)c1)c1cc2ccccc2cc1O [Dynasore],effect on uptake of IQR1.2 by activated neutrophils,"[2]; pre-treatment, probe IQR1.2",prevented
same,effect on uptake of FAM by activated neutrophils,"[2]; pretreatment, probe FAM",prevented
same,effect on cell-associated fluorescence of IQR1 in activated neutrophils,[2]; probe IQR1,inhibited
CC(C)(C)C(=O)Oc1ccc(S(=O)(=O)Nc2ccccc2C(=O)NCC(=O)O)cc1 [sivelestat],effect on neutrophil lysate-induced dequenching of IQR4,human neutrophil lysate,blocked; also recorded: inhibited
same,effect on HNE-induced dequenching of IQR4,[4],inhibited; also recorded: blocked
same,effect on punctate cell-associated fluorescence from probe IQR4 in activated neutrophils,"[2]; 50 μM, pre-treatment 10 mins, A23187",blocked; also recorded: inhibits the appearance of this punctate cell-associated fluorescence

# Reference: US10434191B2, “Optical imaging probes” (THE UNIVERSITY COURT OF THE UNIVERSITY OF EDINBURGH, priority 2011, dated 2019)
